Activity calls are given as the source filed them. The rule behind the calls is not given here.
Test system: GENE-TOX genotoxicity assays, various organisms and cells
Assay: GENE-TOX mutagenicity studies

For `O=P1(N(CCCl)CCCl)NCCCO1` (stereo not drawn), the mutagenic call (Species/Cell Type: Arabidopsis species, Assay Type: Gene mutation, Assay Code: ARM-, Evaluation Type: Evaluation A (Pre-1980)) was “inactive; negative”, the mutagenic call (Species/Cell Type: Chinese hamster ovary (CHO) cells, Assay Type: Forward gene mutation at the HPRT locus, Assay Code: CHO+*, Activation: With metabolic activation, Evaluation Type: Evaluation B (Post-1980)) was “active; positive” and the mutagenic call (Species/Cell Type: Drosophila melanogaster, Assay Type: Sex-linked recessive lethal gene mutation, Assay Code: SRL+, Evaluation Type: Evaluation A (Pre-1980)) was “active; positive”. The mutagenic call (Species/Cell Type: Escherichia coli WP2, Assay Type: Tryptophan reverse gene mutation, Assay Code: WP2+, Evaluation Type: Evaluation A (Pre-1980)) was “active; positive”, the mutagenic call (Species/Cell Type: Escherichia coli WP2 UVRA, Assay Type: Tryptophan reverse gene mutation, Assay Code: WPU+, Evaluation Type: Evaluation A (Pre-1980)) was “active; positive” and the mutagenic call (Species/Cell Type: Escherichia coli polA (W3110 vs P3478), Assay Type: Rec-assay, DNA effects (bacterial DNA repair), Assay Code: RE2+, Evaluation Type: Evaluation A (Pre-1980)) was “active; positive”. The mutagenic call (Species/Cell Type: F1 mouse, Sex: Male, Assay Type: Sperm morphology, Assay Code: SPF+, Evaluation Type: Evaluation A (Pre-1980)) was “active; positive”, the mutagenic call (Species/Cell Type: Fischer rat embryo (RLV/1706) cells, Assay Type: Cell transformation, viral enhanced, Assay Code: CTR+, Evaluation Type: Evaluation A (Pre-1980)) was “active; positive” and the mutagenic call (Species/Cell Type: Human bone marrow, Assay Type: Chromosome aberrations in vivo, Assay Code: CY5+, Evaluation Type: Evaluation A (Pre-1980)) was “active; positive”. For the same compound, the mutagenic call (Species/Cell Type: Human cell culture, Assay Type: Chromosome aberrations in vitro, Assay Code: CYZ+, Evaluation Type: Evaluation A (Pre-1980)) was “active; positive”, the mutagenic call (Species/Cell Type: Human diploid fibroblasts, Assay Type: Unscheduled DNA synthesis (UDS) in vitro, DNA effects, Assay Code: UDHT, Evaluation Type: Evaluation A (Pre-1980)) was “no conclusion” and the mutagenic call (Species/Cell Type: Human lymphocytes or leukocytes, Assay Type: Chromosome aberrations in vitro, Assay Code: CY7+D, Dose Response: With dose response, Evaluation Type: Evaluation A (Pre-1980)) was “active; positive”. For the same compound, the mutagenic call (Species/Cell Type: Human lymphocytes or leukocytes, Assay Type: Chromosome aberrations in vivo, Assay Code: CY8+, Evaluation Type: Evaluation A (Pre-1980)) was “active; positive”, the mutagenic call (Species/Cell Type: Human lymphocytes, Assay Type: Sister-chromatid exchange (SCE) in vitro, Assay Code: SCL+D, Dose Response: With dose response, Evaluation Type: Evaluation B (Post-1980)) was “active; positive” and the mutagenic call (Species/Cell Type: Human lymphocytes, Assay Type: Sister-chromatid exchange (SCE) in vitro, Assay Code: SCLT, Evaluation Type: Evaluation A (Pre-1980)) was “no conclusion”. The mutagenic call (Species/Cell Type: Human lymphocytes, Assay Type: Sister-chromatid exchange (SCE) in vivo, Assay Code: SCY+, Evaluation Type: Evaluation B (Post-1980)) was “active; positive”, the mutagenic call (Species/Cell Type: Human, Assay Type: Sister-chromatid exchange (SCE) in vitro, Assay Code: SC1+D, Dose Response: With dose response, Evaluation Type: Evaluation B (Post-1980)) was “active; positive” and the mutagenic call (Species/Cell Type: Human, Sex: Male, Assay Type: Sperm morphology, Assay Code: SPH+, Evaluation Type: Evaluation A (Pre-1980)) was “active; positive”. The mutagenic call (Species/Cell Type: Mammalian germ cells, Sex: Male, Assay Type: Chromosome aberrations in vivo, Assay Code: CY9+, Evaluation Type: Evaluation A (Pre-1980)) was “active; positive”, the mutagenic call (Species/Cell Type: Mammalian oocytes or early embryo, Assay Type: Chromosome aberrations in vivo, Assay Code: CYO+D, Dose Response: With dose response, Evaluation Type: Evaluation A (Pre-1980)) was “active; positive” and the mutagenic call (Species/Cell Type: Mammalian polychromatic erythrocytes, Assay Type: Micronucleus test, chromosome aberrations, Assay Code: MNT+, Evaluation Type: Evaluation A (Pre-1980)) was “active; positive”. For the same compound, the mutagenic call (Species/Cell Type: Mouse (BALB/c-3T3) cells, Assay Type: Cell transformation, Assay Code: CTB-, Evaluation Type: Evaluation A (Pre-1980)) was “inactive; negative”, the mutagenic call (Species/Cell Type: Mouse (C3H/10T1/2) cells, Assay Type: Cell transformation, Assay Code: CTH+D*, Activation: With metabolic activation, Dose Response: With dose response, Evaluation Type: Evaluation A (Pre-1980)) was “active; positive” and the mutagenic call (Species/Cell Type: Mouse germ cells, Sex: Male, Assay Type: Unscheduled DNA synthesis (UDS) in vivo, DNA effects, Assay Code: UDT+, Evaluation Type: Evaluation A (Pre-1980)) was “active; positive”. For the same compound, the mutagenic call (Species/Cell Type: Mouse lymphoma (L5178Y) cells, Assay Type: Forward gene mutation at the thymidine kinase (TK) locus, chromosome aberrations, Assay Code: L51+*, Activation: With metabolic activation, Evaluation Type: Evaluation A (Pre-1980)) was “active; positive”, the mutagenic call (Species/Cell Type: Mouse, Sex: Female, Assay Type: Spot test, gene mutation, Assay Code: MST+, Evaluation Type: Evaluation A (Pre-1980)) was “active; positive” and the mutagenic call (Species/Cell Type: Mouse, Sex: Male, Assay Type: Heritable translocation test, chromosome aberrations, Assay Code: HTT+, Evaluation Type: Evaluation A (Pre-1980)) was “active; positive”. For the same compound, the mutagenic call (Species/Cell Type: Mouse, Sex: Male, Assay Type: Specific locus test, gene mutation, Assay Code: SLT+, Evaluation Type: Evaluation A (Pre-1980)) was “active; positive”, the mutagenic call (Species/Cell Type: Mouse, Sex: Male, Assay Type: Sperm morphology, Assay Code: SPI+, Evaluation Type: Evaluation A (Pre-1980)) was “active; positive” and the mutagenic call (Species/Cell Type: Nonhuman bone marrow, Assay Type: Chromosome aberrations, in vivo, Assay Code: CY#+D, Dose Response: With dose response, Evaluation Type: Evaluation A (Pre-1980)) was “active; positive”. The call (Species/Cell Type: Nonhuman, Assay Type: In vivo carcinogenicity studies, Assay Code: CCG+, Evaluation Type: Evaluation A (Pre-1980)) was “active; positive”, the mutagenic call (Species/Cell Type: Nonhuman, Assay Type: Sister-chromatid exchange (SCE) in vitro, Assay Code: SC2+D, Dose Response: With dose response, Evaluation Type: Evaluation A (Pre-1980)) was “active; positive” and the mutagenic call (Species/Cell Type: Nonhuman, Assay Type: Sister-chromatid exchange (SCE) in vivo, Assay Code: SC3+D, Dose Response: With dose response, Evaluation Type: Evaluation A (Pre-1980)) was “active; positive”. For the same compound, the mutagenic call (Species/Cell Type: Rabbit, Sex: Male, Assay Type: Sperm morphology, Assay Code: SPRT, Evaluation Type: Evaluation A (Pre-1980)) was “no conclusion”, the mutagenic call (Species/Cell Type: Rat, Sex: Male, Assay Type: Sperm morphology, Assay Code: SPA+, Evaluation Type: Evaluation A (Pre-1980)) was “active; positive” and the mutagenic call (Species/Cell Type: Rodents, Sex: Male, Assay Type: Dominant lethal test, Assay Code: DLT+D, Dose Response: With dose response, Evaluation Type: Evaluation A (Pre-1980)) was “active; positive”. The mutagenic call (Species/Cell Type: Saccharomyces cerevisiae, Assay Type: Forward gene mutation, Assay Code: YEF+, Evaluation Type: Evaluation A (Pre-1980)) was “active; positive”, the mutagenic call (Species/Cell Type: Saccharomyces cerevisiae, Assay Type: Mitotic recombination or gene conversion, Assay Code: YEC+*, Activation: With metabolic activation, Evaluation Type: Evaluation A (Pre-1980)) was “active; positive” and the mutagenic call (Species/Cell Type: Saccharomyces cerevisiae, Assay Type: Mitotic recombination or gene conversion, Assay Code: YEH+, Evaluation Type: Evaluation A (Pre-1980)) was “active; positive”. For the same compound, the mutagenic call (Species/Cell Type: Saccharomyces cerevisiae, Assay Type: Reverse gene mutation, Assay Code: YER+, Evaluation Type: Evaluation A (Pre-1980)) was “active; positive”, the mutagenic call (Species/Cell Type: Salmonella typhimurium (one or more of the five standard strains: TA98, TA100, TA1535, TA1537, and TA1538), Assay Type: Histidine reverse gene mutation, Ames assay, Assay Code: SAL+*, Activation: With metabolic activation, Evaluation Type: Evaluation A (Pre-1980)) was “active; positive” and the mutagenic call (Species/Cell Type: Salmonella typhimurium, Escherichia coli, Serratia marcesens, human lymphoid cells, Saccharomyces cerevisiae, Chinese ha, Assay Type: Forward and reverse gene mutation, mitotic recombination and gene conversion, DNA effects, chromosome aberrations, host-, Assay Code: HM6+, Evaluation Type: Evaluation A (Pre-1980)) was “active; positive”. For the same compound, the mutagenic call (Species/Cell Type: Salmonella typhimurium, Saccharomyces cerevisiae, human leukocytes and diploid fibroblasts, Assay Type: Forward and reverse gene mutation, mitotic recombination and gene conversion, DNA effects, body fluid assay, Assay Code: BFJ+, Evaluation Type: Evaluation A (Pre-1980)) was “active; positive”.

— PubChem BioAssay AID1259408 (Genetic Toxicology Data Bank (GENE-TOX), 2018)
